Data from the supplement of paper PMC11919725.

Columns and labels:
Jurkat [1] = experiment: confluency relative to DMSO, 18 h (ratio); higher = more viable
In short: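 Compound was applied at 1 nM–10 µM (log10 steps) for 18 h at 37 °C, 5% CO2 to Jurkat cells or to primary CD4+/CD8+ T cells that were naive or had been activated 48 h with CD3/CD28 Dynabeads. Suspension (100 µl) was then plated in 96-well plates with IncuCyte Cytotox Dye and alamarBlue and imaged hourly over 3 h (×10, five images per well). Confluency was calculated from the IncuCyte phase-contrast images using the Basic Analyzer and normalised to the mean of the control wells.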

Jurkat [2] = experiment: metabolic activity relative to DMSO, 18 h (ratio); higher = more viable
In short: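 Jurkat cells and primary CD4+/CD8+ T cells, naive or activated for 48 h on CD3/CD28 Dynabeads, were incubated for 18 h with compound at 1 nM–10 µM. Fluorescence was read 3.5 h after alamarBlue addition (10% v/v final) at excitation 544 nm and emission 584 nm. Metabolic activity is normalised to the mean of vehicle controls.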

Jurkat [3] = experiment: cytotoxicity relative to DMSO, 18 h (ratio); higher = less cell death (drugs called cytotoxic fall below 1)
In short: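 The assay used Jurkat cells or naive or CD3/CD28 Dynabead-activated (48 h) primary CD4+/CD8+ T cells, incubated with compound at 1 nM–10 µM in log10 steps for 18 h at 37 °C, 5% CO2. Cytotoxicity was assessed with IncuCyte Cytotox Dye and IncuCyte fluorescence imaging, corrected for confluency and scaled to mean control signals.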

Row | Structure (SMILES) | confluency (Jurkat [1]; 1 nM) | confluency (Jurkat [1]; 10 nM) | confluency (Jurkat [1]; 100 nM) | confluency (Jurkat [1]; 1000 nM) | confluency (Jurkat [1]; 10000 nM) | metabolic activity (Jurkat [2]; 1 nM) | metabolic activity (Jurkat [2]; 10 nM) | metabolic activity (Jurkat [2]; 100 nM) | metabolic activity (Jurkat [2]; 1000 nM) | metabolic activity (Jurkat [2]; 10000 nM) | cytotoxicity (Jurkat [3]; 1 nM) | cytotoxicity (Jurkat [3]; 10 nM) | cytotoxicity (Jurkat [3]; 100 nM) | cytotoxicity (Jurkat [3]; 1000 nM) | cytotoxicity (Jurkat [3]; 10000 nM)
1 | O=C1NC(=O)C(=Cc2ccc3nccc(-c4ccncc4)c3c2)S1 | 0.989 | 0.988 | 0.968 | 0.812 | 1.01 | 0.992 | 0.956 | 0.964 | 0.723 | 0.426 | 0.944 | 0.984 | 0.956 | 0.762 | 0.804
2 | O=C(O)c1ccc(CN2CCC(CNC3CC3c3ccccc3)CC2)cc1 (stereo not given) | 0.954 | 0.956 | 0.996 | 0.987 | 0.993 | 1.09 | 1.06 | 1.09 | 1.08 | 1.02 | 1 | 1.04 | 1.1 | 1.04 | 1.03
3 | CC(C)CC(=O)Nc1n[nH]c2c1CN(C(=O)C1CCN(C)CC1)C2(C)C | 0.887 | 0.876 | 0.978 | 0.97 | 0.591 | 1.17 | 1.2 | 1.26 | 1.24 | 0.438 | 0.914 | 0.908 | 1.05 | 1.07 | 0.406
4 | Cc1c(Cn2c(C)nc3c(C(=O)O)cc(N4CCOCC4)cc32)cccc1C(F)(F)F | 0.923 | 0.973 | 1.05 | 1.03 | 0.998 | 0.862 | 0.891 | 1 | 1.25 | 1.08 | 0.881 | 0.947 | 1.05 | 1.14 | 1.01
5 | COc1ccc(-c2cc3c(C)nc(N)nc3n(C3CCC(OCCO)CC3)c2=O)cn1 (stereo not given) | 1.01 | 0.951 | 0.927 | 0.741 | 0.9 | 1.08 | 1.01 | 0.734 | 0.562 | 0.402 | 1.02 | 0.94 | 0.882 | 0.666 | 0.721
6 | COc1ccc(Cn2ccc3ccc(C(=O)NO)cc32)cc1 | 1.01 | 1.01 | 1 | 1.01 | 1 | 1.03 | 0.992 | 1.02 | 1.01 | 1.02 | 0.955 | 0.926 | 0.954 | 1.04 | 0.938
7 | COCCN1CCN(Cc2ccc(-c3n[nH]c4c3C(=O)c3c(NC(=O)NN5CCOCC5)cccc3-4)cc2)CC1.Cl.Cl | 0.976 | 0.788 | 0.898 | 0.951 | 0.909 | 1.05 | 0.968 | 0.223 | 0.221 | 0.198 | 0.969 | 0.715 | 0.581 | 0.639 | 0.62
